Measurements: patent US20240016766A1, “PHARMACEUTICAL COMPOSITION FOR TREATMENT OF INNER EAR DISORDERS THROUGH LOCAL ADMINISTRATION IN THE TYMPANIC AREA” (priority 2020, published 2024)

Columns and labels:
[1] = Pharmacokinetics after single ear canal administration: concentration in perilymph (Examples 1 and 2)
Method: Pharmacokinetics study of different active agents has been conducted with ready-to-use formulations. The pharmacokinetic study consists of a single administration up to the eardrum on male Long Evans rats and assessment of the level of the active agent in middle ear area (tympanic bulla) and in the inner ear area (perilymph).
2. Route of administration: 20 μl of each formulation are delivered in the ear canal of one animal in one administration.
3. Animals: 6 male rats Long Evans, were obtained from Janvier Labs, Le Genest St Isle, 53941 St Berthevin, France. Acclimation Animals arrived on site at least 5 days before the experiment to allow optimal acclimation. Selection Animal health was examined on the day before starting the study, to ensure that only animals in good health were selected to enter the testing procedures. Identification: At the beginning of the study, animals were identified with a number on the tail. Each cage was labelled with a record card, indicating the test compound, the dose of administration and the identification of the animals Housing: Rats were housed in cages (1354G (Tecniplast, Lyon), dim 595*380 mm (w*d)), in a room where the air was continuously filtered, thereby avoiding any contamination. During experiments, rats were caged in groups of five (300-400 g) at a constant temperature with a day/night cycle of 12/12 hours. Animals received water (autoclaved water) and nutrition (ref A04C10), ad libitum.
4. Treatment and study design: The treatment was delivered into the ear canal and on the tympanic membrane on anesthetized rats (2.5% isoflurane). The exact volume of administration was determined during this first test and delivered (volume of 20 μL). Both ears were treated. After administration, the animal was kept on a heating pad for 5 minutes, positioned on its side to allow the compound to diffuse through the tympanic membrane. Then the second ear were administered, and the animal kept on its side for 5 minutes. Finally, the animal was kept on a ventral position until its recovery from anesthesia. The diffusion trough the tympanic membrane and into the inner ear and was assessed with the dosage of the perilymph sampling. Tympanic bulla sampling technique: After sacrifice of the rats, the right tympanic bulla was collected from each animal and transferred to an Eppendorf tube, weighed individually and frozen at −20° C. until analysis. Perilymph sampling technique: After sacrifice of the rats and extraction of the tympanic bulla from the left ear, a volume of about 1 μL of cochlear fluid at the base of the cochlea was sampled ex vivo. Tubes were weighed individually before and after sampling, and immediately transferred to a −20° C. freezer.
5. Bioanalysis: The concentration of each compound in the perilymph and in the tympanic bulla was quantified using an exploratory LC/MS-MS assay method in outsourcing laboratory (Eurofins Vergeze, France). The concentration of amitriptyline in plasma was assessed.
The same materials and methods were used as in Example 1.

[2] = Further pharmacokinetics study, apricot oil formulations: concentration in perilymph (Example 3); format: in vivo, male Long Evans rats
Method: Apricot oil is present in the formulation as a solubilizing agent. α-(-)-bisabolol is used as diffusing agent. […] 2. […] 3. […] 4. […] Both ears were treated. […] 5. […]

[3] = Pharmacokinetics after single ear canal administration: concentration in plasma; format: in vivo, male Long Evans rats; details: from 1 to 8 hours after administration
Method: 2. […] 3. […] Animals received water (autoclaved water) and nutrition (ref […]), ad libitum. 4. […] Both ears were treated. […] Perilymph sampling technique: […] […] 5. […] The concentration of amitriptyline in plasma was assessed.

[4] = after 8 hours from the administration onto the tympanic membrane, Example 1 conclusion
[5] = after 8 hours from the administration onto the tympanic membrane, Example 3 conclusion

COc1ccc2c(c1)[C@]13CCCC[C@@H]1[C@H](C2)N(C)CC3 [dextromethorphan]
Presence within the inner ear (perilymph) [1, 4]: present

C=C(C)[C@@H]1CCC(C)=C[C@H]1c1c(O)cc(CCCCC)cc1O [cannabidiol]
Presence within the inner ear (perilymph) [1, 4]: present

CCCN[C@H]1CCc2nc(N)sc2C1 [pramipexole]
Presence within the inner ear (perilymph) ([1]; rat, in vivo): present

CC1CCCCC1(c1cccs1)N1CCCCC1 (stereo not shown) [gacyclidine]
Presence within the inner ear (perilymph) [1, 4]: present

CCN(CC)CC(=O)Nc1c(C)cccc1C [lidocaine]
Presence within the inner ear (perilymph) [2, 5]: present

CCCN(CCC)CCc1cccc2c1CC(=O)N2 [ropinirole]
Presence within the inner ear (perilymph) ([1]; rat, in vivo): present

C[C@@H]1C[C@H]2[C@@H]3CCC4=CC(=O)C=C[C@]4(C)[C@@]3(F)[C@@H](O)C[C@]2(C)[C@@]1(O)C(=O)CO [dexamethasone]
Presence within the inner ear (perilymph) [2, 5]: present | Presence within the inner ear (perilymph) ([1]; rat, in vivo): present

CN(C)CCC=C1c2ccccc2CCc2ccccc21 [amitriptyline]
Presence in plasma [3]: present in plasma | Presence within the inner ear (perilymph) ([1]; rat, in vivo): present

O=c1cc(-c2ccccc2)oc2c(O)c(O)ccc12 [7,8-dihydroxyflavone]
Presence within the inner ear (perilymph) ([2]; rat, in vivo): present | Presence within the inner ear (perilymph) ([1]; rat, in vivo): present

CC(C)c1cc2[nH]c(=O)n(NS(C)(=O)=O)c(=O)c2cc1-c1ccnn1C [selurampanel]
Presence within the inner ear (perilymph) [1, 4]: present
